From ChEMBL document CHEMBL4706634, “PEGylated and Acylated Elabela Analogues Show Enhanced Receptor Binding, Prolonged Stability, and Remedy of Acute Kidney Injury” (J Med Chem, 2020)
The source made the active and inactive calls. The rule behind the calls is not given here.

Experiments:
[1] = Stability in mouse plasma assessed as half life at 1.56 mM by RP-HPLC analysis; type: ADME, cell-free
[2] = Stability in human plasma assessed as half life at 1.56 mM by RP-HPLC analysis; type: ADME, cell-free
[3] = test system: Mus musculus; experiment: Reno-protective activity in C57BL/6 mouse model of renal I/R injury assessed as improvement in pathologies in injured kidneys dosed intraperitoneally twice per day for 3 days from day of I/R injury to end of experiment by hematoxylin and eosin staining based assay; type: functional, organism-based; conditions: time 3.0 day
[4] = test system: NRK-52E; experiment: Cytoprotective activity in rat NRK-52E cells assessed as reduction in cisplatin-induced cell death at 300 pM incubated for 24 hrs; type: functional, cell-based
[5] = test system: Mus musculus; experiment: Reno-protective activity in C57BL/6 mouse model of renal I/R injury assessed as reduction in p-MLK levels dosed intraperitoneally twice per day for 3 days from day of I/R injury to end of experiment by Western blot analysis; type: functional, organism-based; conditions: time 3.0 day
[6] = test system: Mus musculus; experiment: Reno-protective activity in C57BL/6 mouse model of renal I/R injury assessed as reduction in serum BUN level dosed intraperitoneally twice per day for 3 days from day of I/R injury to end of experiment; type: functional, organism-based; conditions: time 3.0 day
[7] = test system: Mus musculus; experiment: Reno-protective activity in C57BL/6 mouse model of renal I/R injury assessed as suppression of reduction in cleaved-caspase-8 levels dosed intraperitoneally twice per day for 3 days from day of I/R injury to end of experiment by Western blot analysis; type: functional, organism-based; conditions: time 3.0 day
[8] = test system: Mus musculus; experiment: Reno-protective activity in C57BL/6 mouse model of renal I/R injury assessed as reduction N-gal mRNA levels dosed intraperitoneally twice per day for 3 days from day of I/R injury to end of experiment by qPCR analysis; type: functional, organism-based; conditions: time 3.0 day
[9] = test system: NRK-52E; experiment: Cytoprotective activity in rat NRK-52E cells assessed as reduction in H/R-injury induced cell death at 300 pM incubated for 24 hrs; type: functional, cell-based
[10] = test system: Mus musculus; experiment: Reno-protective activity in C57BL/6 mouse model of renal I/R injury assessed as reduction in fibrosis by measuring collagen deposition dosed intraperitoneally twice per day for 3 days from day of I/R injury to end of experiment by Masson staining based assay; type: functional, organism-based; conditions: time 3.0 day
[11] = test system: Mus musculus; experiment: Reno-protective activity in C57BL/6 mouse model of renal I/R injury assessed as reduction neutrophil infiltration dosed intraperitoneally twice per day for 3 days from day of I/R injury to end of experiment; type: functional, organism-based; conditions: time 3.0 day
[12] = biological target: T1, Apelin receptor (Rattus norvegicus, UniProt Q9JHG3); experiment: Agonist activity at APJ receptor in rat NRK-52E cells assessed as effect on cAMP accumulation incubated for 1 hr by cAMP-Glo assay; type: functional, cell-based
T1 sequence (Q9JHG3 whole entry): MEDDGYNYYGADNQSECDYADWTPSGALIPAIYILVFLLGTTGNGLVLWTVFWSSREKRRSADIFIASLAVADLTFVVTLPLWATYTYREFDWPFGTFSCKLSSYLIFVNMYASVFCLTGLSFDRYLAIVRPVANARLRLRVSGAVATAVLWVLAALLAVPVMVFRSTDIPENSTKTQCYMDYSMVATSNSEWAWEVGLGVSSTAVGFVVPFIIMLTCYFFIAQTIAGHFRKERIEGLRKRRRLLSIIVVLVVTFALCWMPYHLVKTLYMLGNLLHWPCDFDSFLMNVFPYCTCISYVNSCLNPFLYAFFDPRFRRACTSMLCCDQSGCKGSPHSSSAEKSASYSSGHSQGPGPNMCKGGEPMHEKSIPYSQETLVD

[13] = Stability in mouse plasma assessed as intact peptide level at 1.56 mM incubated for 1 hr by RP-HPLC analysis; type: ADME, cell-free; conditions: read-out: Stabilty
[14] = test system: Mus musculus; experiment: Reno-protective activity in C57BL/6 mouse model of renal I/R injury assessed as reduction lymphocyte infiltration dosed intraperitoneally twice per day for 3 days from day of I/R injury to end of experiment; type: functional, organism-based; conditions: time 3.0 day
[15] = test system: Mus musculus; experiment: Reno-protective activity in C57BL/6 mouse model of renal I/R injury assessed as reduction in cleaved-caspase-3 levels dosed intraperitoneally twice per day for 3 days from day of I/R injury to end of experiment by Western blot analysis; type: functional, organism-based; conditions: time 3.0 day
[16] = test system: Mus musculus; experiment: Reno-protective activity in C57BL/6 mouse model of renal I/R injury assessed as reduction in apoptosis by measuring increase in number of TUNEL+ cells dosed intraperitoneally twice per day for 3 days from day of I/R injury to end of experiment by TUNEL assay; type: functional, organism-based; conditions: time 3.0 day
[17] = Half life in mouse at 3 umol/kg, iv by analytical RP-HPLC analysis; type: ADME, organism-based; conditions: in vivo, dose 3 µmol/kg

For CSCC[C@H](NC(=O)[C@H](CS)NC(=O)[C@H](CCCNC(=N)N)NC(=O)[C@H](CCCNC(=N)N)NC(=O)[C@@H]1CCC(=O)N1)C(=O)N1CCC[C@H]1C(=O)N[C@@H](CC(C)C)C(=O)N[C@@H](Cc1c[nH]cn1)C(=O)N[C@@H](CO)C(=O)N[C@@H](CCCNC(=N)N)C(=O)N[C@H](C(=O)N1CCC[C@H]1C(=O)N[C@@H](Cc1ccccc1)C(=O)N1CCC[C@H]1C(N)=O)C(C)C, the half-life at 1560 µM [1] was 17.4 min.
In the case of CSCC[C@H](NC(=O)[C@H](CS)NC(=O)CC[C@H](NC(=O)CCOCCOCCOCCOCCOCCOCCN)C(=O)O)C(=O)N1CCC[C@H]1C(=O)N[C@@H](CC(C)C)C(=O)N[C@@H](Cc1c[nH]cn1)C(=O)N[C@@H](CO)C(=O)N[C@@H](CCCNC(=N)N)C(=O)N[C@H](C(=O)N1CCC[C@H]1C(=O)N[C@@H](Cc1ccccc1)C(=O)N1CCC[C@H]1C(N)=O)C(C)C, the half-life at 1560 µM [2] is reported as 106 min, the Activity [3] is reported as “Active” and the Activity [4] is reported as “Active”. For the same compound, the Activity [5] was “Active”, the Activity [6] was “Active” and the Activity [7] was “Active”. The Activity [8] was “Active”, the Activity [9] was “Active” and the Activity [10] was “Active”. For the same compound, the Activity [11] was “Active”, the EC50 [12] was 7.84 nM and the remaining at 1 h, 1560 µM [13] was 38.7%. For the same compound, the Activity [14] was “Active”, the half-life at 1560 µM [1] was 47.4 min and the Activity [15] was “Active”. For the same compound, the Activity [16] was “Active”.
For CSCC[C@H](NC(=O)[C@@H](N)CS)C(=O)N1CCC[C@H]1C(=O)N[C@@H](CC(C)C)C(=O)N[C@@H](Cc1c[nH]cn1)C(=O)N[C@@H](CO)C(=O)N[C@@H](CCCNC(=N)N)C(=O)N[C@H](C(=O)N1CCC[C@H]1C(=O)N[C@@H](Cc1ccccc1)C(=O)N1CCC[C@H]1C(N)=O)C(C)C, the half-life at 1560 µM [2] was 23.4 min, the Activity [3] was “Active” and the Activity [4] was “Active”. For the same compound, the Activity [5] was “Active”, the half-life [17] was 21 min and the Activity [7] was “Active”. For the same compound, the Activity [9] was “Active”, the Activity [10] was “Active” and the Activity [11] was “Active”. For the same compound, the remaining at 1 h, 1560 µM [13] was 19%, the Activity [14] was “Active” and the half-life at 1560 µM [1] was 22.8 min. The Activity [15] was “Active” and the Activity [16] was “Active”.
